Values of other authors, collected in patent US11590090B2, “Acetaminophen formulation with protection against toxic effects of overdose” (Anzen Pharmaceuticals, LLC, priority 2019, dated 2023).

Tested on: cytochrome P450 mixed-function oxygenase system
Settings: upon ingestion

## CC(=O)Nc1ccc(O)cc1 [acetaminophen]
  Fraction metabolized in the liver by cytochrome P450 to NAPQI: about 5%
